As usually defined, the IC50 is the point on the concentration scale where inhibition reaches its midpoint.

Read-outs that look alike come from different tables or passages of the source. *1 amine or outer side, *2 acyl side, *3 side chain or, on linkers, in order; H or OH if unused. Where a SMILES comes first, the peptide text is derived from it. Bridges are numbered along the chain shown (N, C = ends). Maleimide(3,4-diyl) = O=C1NC(=O)C([*:2])=C1[*:1] Bounds are passed on as bounds.

The experiment addresses T1, Aurora-A122-403-C290A/C393A (Homo sapiens, UniProt O14965, C290A/C393A).
T1 construct: Human Aurora-A kinase domain 122-403 wild-type or C290A/ C393A mutant; His tag (pET30TEV vector) (N, cleaved yes); made in house; host or cells: E. coli RIL, co-expressed with lambda phosphatase (Aurora-A); tracer by solid phase synthesis
T1 sequence (O14965 122-403 C290A/C393A): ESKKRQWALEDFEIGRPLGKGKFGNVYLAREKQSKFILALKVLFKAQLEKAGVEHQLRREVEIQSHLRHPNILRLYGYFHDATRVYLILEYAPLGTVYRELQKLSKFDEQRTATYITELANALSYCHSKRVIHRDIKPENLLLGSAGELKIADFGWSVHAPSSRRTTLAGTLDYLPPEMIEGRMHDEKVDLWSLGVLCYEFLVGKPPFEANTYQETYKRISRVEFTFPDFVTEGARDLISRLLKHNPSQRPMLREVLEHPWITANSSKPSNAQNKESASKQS
The experiment is described as follows: Competition FA assay against FAM-Ahx-TACC3 522-536 tracer. The class given is binding.

[1] abbreviates: as E1, oxidised (disulfide) species made in situ from 10 mM stock in aqueous DMSO 33% v/v, air, overnight, WT control (+DMSO) given the same DMSO incubation, mean ± SD, n = 3, read-out: IC50 (ox).
[2] abbreviates: as E1, Table S3 (mal): maleimide-constrained species, WT value is an individual replica control assay, mean ± SD, n = 3, read-out: IC50 (mal).
Setting [3] is: as E1, Table S3 (mal): maleimide-constrained species, WT value is an individual replica control assay, mean ± SD, n = 3, SD, read-out: IC50 (mal).
Setting [4] is: as E1, free-sulfhydryl (reduced) species, DTT 5 mM in buffer, WT control (+DTT), mean ± SD, n = 3, read-out: IC50 (red).

For the compound `CC(=O)N[C@@H](CCC(=O)O)C(=O)N[C@@H](CCC(=O)O)C(=O)N[C@@H](CO)C(=O)N[C@@H](Cc1ccc(C(F)(F)F)cc1)C(=O)N[C@@H](CCCNC(=N)N)C(=O)N[C@@H](CC(=O)O)C(=O)N1CCC[C@H]1C(=O)N[C@@H](C)C(=O)N[C@@H](CCC(=O)O)C(=O)N[C@H](C(=O)N[C@@H](CC(C)C)C(=O)NCC(=O)N[C@H](C(=O)NCC(=O)N[C@@H](C)C(N)=O)[C@@H](C)O)C(C)C` [TACC3 522-536_(4-CF3)525F], the IC50 (SD, read-out: IC50) came out at 170 ± 17 µM. Regarding `CC(=O)N[C@@H](CCC(=O)O)C(=O)N[C@@H](CCC(=O)O)C(=O)N[C@@H](CO)C(=O)N[C@@H](Cc1ccccc1)C(=O)N[C@@H](CCCNC(=N)N)C(=O)N[C@@H](CC(=O)O)C(=O)N1CCC[C@H]1C(=O)N[C@@H](C)C(=O)N[C@@H](CCC(=O)O)C(=O)N[C@H](C(=O)N[C@@H](CC(C)C)C(=O)N[C@H]1CSSC[C@@H](C(N)=O)NC(=O)CNC(=O)[C@H]([C@@H](C)O)NC1=O)C(C)C` [TACC3 522-536 G533C/A536C (ox)] (Ac-EESFRDPAEVLCTGC-NH2; disulfide 12-15), the IC50 under setting [1] is at least 500 µM. With `CC(=O)N[C@@H](CCC(=O)O)C(=O)N[C@@H](CCC(=O)O)C(=O)N[C@@H](CO)C(=O)N[C@@H](Cc1ccccc1)C(=O)N[C@H]1CSC2=C(SC[C@@H](C(=O)N[C@@H](CCC(=O)O)C(=O)N[C@H](C(=O)N[C@@H](CC(C)C)C(=O)NCC(=O)N[C@H](C(=O)NCC(=O)N[C@@H](C)C(N)=O)[C@@H](C)O)C(C)C)NC(=O)[C@@H]3CCCN3C(=O)[C@H](CC(=O)O)NC1=O)C(=O)NC2=O` [TACC3 522-536 R526C/A529C (mal)] (Ac-EESFCDPCEVLGTGA-NH2; linker 5-8 via Maleimide(3,4-diyl) (inferred)), under setting [2], the IC50 is at least 500 µM. `CC(=O)N[C@@H](CCC(=O)O)C(=O)N[C@@H](CCC(=O)O)C(=O)N[C@@H](CO)C(=O)N[C@@H](Cc1ccc(F)cc1)C(=O)N[C@@H](CCCNC(=N)N)C(=O)N[C@@H](CC(=O)O)C(=O)N1CCC[C@H]1C(=O)N[C@@H](C)C(=O)N[C@@H](CCC(=O)O)C(=O)N[C@H](C(=O)N[C@@H](CC(C)C)C(=O)NCC(=O)N[C@H](C(=O)NCC(=O)N[C@@H](C)C(N)=O)[C@@H](C)O)C(C)C` [TACC3 522-536_(4-F)525F]: the IC50 (SD, read-out: IC50) is 184 ± 22 µM. Consider `CC(=O)N[C@@H](CCC(=O)O)C(=O)N[C@@H](CCC(=O)O)C(=O)N[C@@H](CO)C(=O)N[C@@H](Cc1ccccc1)C(=O)N[C@@H](CCCNC(=N)N)C(=O)N[C@@H](CC(=O)O)C(=O)N1CCC[C@H]1C(=O)N[C@H]1CSC2=C(SC[C@@H](C(=O)NCC(=O)N[C@H](C(=O)NCC(=O)N[C@@H](C)C(N)=O)[C@@H](C)O)NC(=O)[C@H](C(C)C)NC(=O)[C@H](CCC(=O)O)NC1=O)C(=O)NC2=O` [TACC3 522-536 A529C/L532C (mal)] (Ac-EESFRDPCEVCGTGA-NH2; linker 8-11 via Maleimide(3,4-diyl)), for which the IC50 under setting [3] is 483 ± 58 µM. With `CC(=O)N[C@@H](CCC(=O)O)C(=O)N[C@@H](CCC(=O)O)C(=O)N[C@@H](CO)C(=O)N[C@@H](Cc1ccccc1)C(=O)N[C@H]1CSSC[C@@H](C(=O)N[C@@H](CC(C)C)C(=O)NCC(=O)N[C@H](C(=O)NCC(=O)N[C@@H](C)C(N)=O)[C@@H](C)O)NC(=O)[C@H](CCC(=O)O)NC(=O)[C@H](C)NC(=O)[C@@H]2CCCN2C(=O)[C@H](CC(=O)O)NC1=O` [TACC3 522-536 R526C/V531C (ox)] (Ac-EESFCDPAECLGTGA-NH2; disulfide 5-10), the IC50 under setting [1] is at least 500 µM. As for `CC(=O)N[C@@H](CCC(=O)O)C(=O)N[C@@H](CCC(=O)O)C(=O)N[C@@H](CO)C(=O)N[C@@H](Cc1ccccc1)C(=O)N[C@@H](CS)C(=O)N[C@@H](CC(=O)O)C(=O)N1CCC[C@H]1C(=O)N[C@@H](C)C(=O)N[C@@H](CCC(=O)O)C(=O)N[C@@H](CS)C(=O)N[C@@H](CC(C)C)C(=O)NCC(=O)N[C@H](C(=O)NCC(=O)N[C@@H](C)C(N)=O)[C@@H](C)O` [TACC3 522-536 R526C/V531C (red)] (Ac-EESFCDPAECLGTGA-NH2), under setting [4], the concentration for half-maximal inhibition (IC50) is at least 500 µM. On to `CC(=O)N[C@@H](CCC(=O)O)C(=O)N[C@@H](CCC(=O)O)C(=O)N[C@@H](CO)C(=O)N[C@@H](Cc1ccccc1)C(=O)N[C@@H](CCCNC(=N)N)C(=O)N[C@@H](CC(=O)O)C(=O)N1CCC[C@H]1C(=O)N[C@@H](C)C(=O)N[C@@H](CS)C(=O)N[C@H](C(=O)N[C@@H](CC(C)C)C(=O)N[C@@H](CS)C(=O)N[C@H](C(=O)NCC(=O)N[C@@H](C)C(N)=O)[C@@H](C)O)C(C)C` [TACC3 522-536 E530C/G533C (red)] (Ac-EESFRDPACVLCTGA-NH2), for which, under setting [4], the IC50 is at least 500 µM.

Regarding “Ac-EESFRDPAEILGTGA-NH2 [TACC3 522-536_V531I]”, the IC50 (read-out: IC50) is at least 300 µM.

As for `CC(=O)N[C@@H](CCC(=O)O)C(=O)N[C@@H](CCC(=O)O)C(=O)N[C@@H](CO)C(=O)N[C@@H](Cc1ccccc1)C(=O)N[C@@H](CCCNC(=N)N)C(=O)N[C@@H](CC(=O)O)C(=O)N1CCC[C@H]1C(=O)N[C@@H](C)C(=O)N[C@@H](CCC(=O)O)C(=O)N[C@@H](CS)C(=O)N[C@@H](CC(C)C)C(=O)NCC(=O)N[C@@H](CS)C(=O)NCC(=O)N[C@@H](C)C(N)=O` [TACC3 522-536 V531C/T534C (red)] (Ac-EESFRDPAECLGCGA-NH2), the IC50 under setting [4] is at least 500 µM. Regarding `CC(=O)N[C@@H](CCC(=O)O)C(=O)N[C@H]1CSC2=C(SC[C@@H](C(=O)N[C@@H](CC(=O)O)C(=O)N3CCC[C@H]3C(=O)N[C@@H](C)C(=O)N[C@@H](CCC(=O)O)C(=O)N[C@H](C(=O)N[C@@H](CC(C)C)C(=O)NCC(=O)N[C@H](C(=O)NCC(=O)N[C@@H](C)C(N)=O)[C@@H](C)O)C(C)C)NC(=O)[C@H](Cc3ccccc3)NC(=O)[C@H](CO)NC1=O)C(=O)NC2=O` [TACC3 522-536 E523C/R526C (mal)] (Ac-ECSFCDPAEVLGTGA-NH2; linker 2-5 via Maleimide(3,4-diyl)), the IC50 under setting [3] was determined as 376 ± 28 µM.

As for `CC(=O)N[C@@H](CCC(=O)O)C(=O)N[C@@H](CCC(=O)O)C(=O)N[C@@H](CO)C(=O)N[C@@H](Cc1ccccc1)C(=O)N[C@@H](CCCNC(=N)N)C(=O)N[C@@H](CC(=O)O)C(=O)N1CCC[C@H]1C(=O)N[C@@H](C)C(=O)N[C@@H](CCC(=O)O)C(=O)N[C@H](C(=O)N[C@H]1CSC2=C(SC[C@@H](C(=O)N[C@@H](C)C(N)=O)NC(=O)[C@H]([C@@H](C)O)NC(=O)CNC1=O)C(=O)NC2=O)C(C)C` [TACC3 522-536 L532C/G535C (mal)] (Ac-EESFRDPAEVCGTCA-NH2; linker 11-14 via Maleimide(3,4-diyl)), the IC50 under setting [3] came out at 480 ± 60 µM. For the compound “Ac-EESYRDPAEVLGTGA-NH2 [TACC3 522-536_F525Y]”, the IC50 (read-out: IC50) is at least 500 µM. Regarding `CC(=O)N[C@@H](CCC(=O)O)C(=O)N[C@@H](CCC(=O)O)C(=O)N[C@@H](CO)C(=O)N[C@@H](CS)C(=O)N[C@@H](CCCNC(=N)N)C(=O)N[C@@H](CC(=O)O)C(=O)N[C@@H](CS)C(=O)N[C@@H](C)C(=O)N[C@@H](CCC(=O)O)C(=O)N[C@H](C(=O)N[C@@H](CC(C)C)C(=O)NCC(=O)N[C@H](C(=O)NCC(=O)N[C@@H](C)C(N)=O)[C@@H](C)O)C(C)C` [TACC3 522-536 F525C/P528C (red)] (Ac-EESCRDCAEVLGTGA-NH2), the IC50 under setting [4] is at least 500 µM. In the case of `CC(=O)N[C@@H](CCC(=O)O)C(=O)N[C@@H](CCC(=O)O)C(=O)N[C@H]1CSC2=C(SC[C@@H](C(=O)N3CCC[C@H]3C(=O)N[C@@H](C)C(=O)N[C@@H](CCC(=O)O)C(=O)N[C@H](C(=O)N[C@@H](CC(C)C)C(=O)NCC(=O)N[C@H](C(=O)NCC(=O)N[C@@H](C)C(N)=O)[C@@H](C)O)C(C)C)NC(=O)[C@H](CCCNC(=N)N)NC(=O)[C@H](Cc3ccccc3)NC1=O)C(=O)NC2=O` [TACC3 522-536 S524C/D527C (mal)] (Ac-EECFRCPAEVLGTGA-NH2; linker 3-6 via Maleimide(3,4-diyl) (inferred)), under setting [2], the IC50 is at least 500 µM. Consider `CC(=O)N[C@@H](CCC(=O)O)C(=O)N[C@@H](CCC(=O)O)C(=O)N[C@@H](CO)C(=O)N[C@H]1CSSC[C@@H](C(=O)N[C@@H](C)C(=O)N[C@@H](CCC(=O)O)C(=O)N[C@H](C(=O)N[C@@H](CC(C)C)C(=O)NCC(=O)N[C@H](C(=O)NCC(=O)N[C@@H](C)C(N)=O)[C@@H](C)O)C(C)C)NC(=O)[C@H](CC(=O)O)NC(=O)[C@H](CCCNC(=N)N)NC1=O` [TACC3 522-536 F525C/P528C (ox)] (Ac-EESCRDCAEVLGTGA-NH2; disulfide 4-7), for which, under setting [1], the IC50 is at least 500 µM. On to `CC(=O)N[C@@H](CCC(=O)O)C(=O)N[C@@H](CCC(=O)O)C(=O)N[C@@H](CO)C(=O)N[C@@H](Cc1ccccc1)C(=O)N[C@@H](CCCNC(=N)N)C(=O)N[C@@H](CC(=O)O)C(=O)N[C@H]1CSC2=C(SC[C@@H](C(=O)N[C@@H](CC(C)C)C(=O)NCC(=O)N[C@H](C(=O)NCC(=O)N[C@@H](C)C(N)=O)[C@@H](C)O)NC(=O)[C@H](CCC(=O)O)NC(=O)[C@H](C)NC1=O)C(=O)NC2=O` [TACC3 522-536 P528C/V531C (mal)] (Ac-EESFRDCAECLGTGA-NH2; linker 7-10 via Maleimide(3,4-diyl) (inferred)), for which the IC50 under setting [2] is at least 500 µM.

These data come from publication PMC11604048, “Constrained TACC3 peptidomimetics for a non-canonical protein–protein interface elucidate allosteric communication in Aurora-A kinase” (Chemical Science, 2024).
